According to PMC8079714 (Nature Communications, 2021):
“And” between values parts separate entries of the source, which are not always exact repeats. Equal entries are not always repeated.

System: N. benthamiana leaves
Conditions: in vivo

Substance | sites showing a visible cell death response out of total infiltrated sites
NPDFNPVNKPTPNEKIPAGSTYKIEWTAPA [VdSNP30rec] | 1/10 and 3/30
TPGFHALVKPVRDEVIPAGKPYTLEWQPGG [MoSNP30rec] | 1/10 and 3/30
DPIYTPNSGETIDAGAPYTVTW [SGP123-44rec] | 10/10 and 30/30
TAGFDAVLTPAKDEVVAAGSSYTITWDYSS [VmSNP30rec] | 0/10 and 0/30
W44A (FDPIYTPNSGETIDAGAPYTVTA) | 0/5 and 0/15
TAGFDAISVPTNGQVVQVGDVLDITWAPNS [BcSNP30rec] | 10/10 and 30/30
TAGFDAISVPTNGQVVKVGDVLDITWAPNA [SsSNP30rec] | 9/10 and 10/10 and 28/30
TPDFDPIYTPKKDEVVAAGSPLVITWDAPA [CpSNP30rec] | 9/10 and 10/10 and 28/30
VADFDPVLTPTNWEEVSAGKTLEITWQAKP [FvSNP30rec] | 0/10 and 0/30
TADFDPIFKPEAWQSVAAGQSFQITWDAPA [FsSNP30rec] | 9/10 and 27/30
